Data set [1] in a line: Water sorption and solubility (ISO 4049). The format is physicochemical. Conditions: for water sorption: one week in water. On the procedure: The same samples used in the polymerization kinetics test were stored dry at room temperature for 24 hs, then used for the water sorption (WS) and solubility (SL) test, according to ISO 4049 (REF). The initial mass (M1) was recorded and the volume calculated following the equation: V=h×πr^2 where h (mm) is the sample height and r (mm) is the sample radius.
Each sample was placed in a tight-close glass vial with 5 glass beads on the bottom to ensure the whole surface of the sample was exposed to water, and then the vial was filled by 5 ml of double-distilled water and kept closed for one week. The samples were then removed from water, patted dry and weighed again (M2) and placed in a desiccator until mass stabilization (M3) was observed. Water sorption (WS) and solubility (SL) were calculated according to the equations:
[formula] and the results were converted into […], where V is the volume of the specimen. Dentin Microtensile Bond Strength
The same samples used in the polymerization kinetics were tested for water sorption and solubility, according to [25]. Briefly, the mass of the disks was determined before (m1) and after immersion in distilled water for one week (m2). The disks were then stored in a desiccator until the mass stabilized (m3), which took around one week. Water sorption (WS) and solubility (SL) were calculated using the following equations:
[formula] where V is the volume of the specimen. 2.4 Microtensile bond strength

Data set [2] in a line: Neat monomer incubation in water, remaining monomer by HPLC. As to conditions: neat compound incubated in water.
Method: (§1) Monomers were prepared to a concentration of 0.15 mM for water and CE/PCE incubations and incubated at 72 hours at 37° C.
(§2) Degradation from CE and PCE was monitored via high performance liquid chromatography (HPLC) and measured via initial and post incubation monomer area difference.
(§3) This was calculated in the decrease in absorbance area measured by HPLC at 227 nm wavelength. Degradation was further verified by the detection of methacrylic acid.
Data set [3] deals with cholinesterase (CE) and pseudocholinesterase (PCE). Briefly: Neat monomer incubation with cholinesterase / pseudocholinesterase, HPLC. Conditions: neat compound in the presence of cholinesterase.
Method: as §1, §2, §3
For data set [4] the following is noted: at 30° C. and 1 Hz; cited from earlier work.
In data set [5] the target is T1, matrix metalloproteinase 2 (MMP-2) (Homo sapiens, UniProt P08253).
T1 sequence (P08253 110-660): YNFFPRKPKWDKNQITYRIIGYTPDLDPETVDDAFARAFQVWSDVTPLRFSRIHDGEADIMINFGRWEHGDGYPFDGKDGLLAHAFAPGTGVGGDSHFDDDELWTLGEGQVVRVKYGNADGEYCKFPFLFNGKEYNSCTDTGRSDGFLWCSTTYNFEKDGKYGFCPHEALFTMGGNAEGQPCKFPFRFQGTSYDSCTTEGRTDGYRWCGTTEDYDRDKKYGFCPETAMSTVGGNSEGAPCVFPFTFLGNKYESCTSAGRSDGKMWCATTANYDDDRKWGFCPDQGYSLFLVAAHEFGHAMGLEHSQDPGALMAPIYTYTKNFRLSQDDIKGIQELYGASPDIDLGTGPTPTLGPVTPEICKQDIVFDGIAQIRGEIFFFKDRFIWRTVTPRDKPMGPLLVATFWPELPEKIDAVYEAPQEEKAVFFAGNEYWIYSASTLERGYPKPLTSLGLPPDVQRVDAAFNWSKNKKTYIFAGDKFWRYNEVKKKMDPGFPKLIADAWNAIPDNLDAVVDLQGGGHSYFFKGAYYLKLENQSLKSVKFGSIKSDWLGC
Briefly: MMP-2 incubation, fluorometric assay. The format is biochemical. Conditions: 0.02 mM monomer, 24 hours at 37° C., fluorescence Ex/Em=490/525 nm. As to the method:
MMP-2 incubation was prepared at 0.02 mM monomer concentration and incubated at 24 hours at 37° C. and degradation from MMP was measured via a fluorometric assay utilizing a plate reader.
BB94 is a commercial, known inhibitor of MMP-2. Plate reader fluorescence was set at Ex/Em=490/525 nm. Lower fluorescence signal indicates enzyme inhibition. Initial study indicate HEMA and HEMAM inhibition of MMP-2.

Data set [6] in a line: Monomer degradation in low pH environment (1H NMR). As to conditions: neat monomer, 30 days.

SMILES strings stand for the structures.

With `C=C(C)C(=O)NC(C)(C)CO` [Monomer 2dMM, N-(1-hydroxy-2-methylpropan-2-yl)methacrylamide], in data set [1] (UDMA mixtures), the water sorption was 102.7 μg/mm3. Moreover, the “degradation under aqueous conditions” value in data set [2] is recorded as “virtually no degradation”. Moreover, the “degraded monomers under enzymatic conditions” value (“degraded monomers” for short) in data set [3] was 8%.
Turning to `C=C(C)C(=O)NC(CC)CO` (stereo not shown) [Monomer 2EM, N-(1-hydroxybutan-2-yl)methacrylamide], the water sorption in data set [1] (UDMA mixtures) turned out to be 102.7 μg/mm3. Besides, the “degradation under aqueous conditions” value in data set [2] is “virtually no degradation”. The “degraded monomers” value in data set [3] is 22%.
Take `C=C(C)C(=O)OCCOC(=O)NCCC(C)CC(C)(C)CNC(=O)OCCOC(=O)C(=C)C` (stereo not shown) [UDMA, urethane dimethacrylate]: in data set [4], the initial viscosity was 28 Pa·s.
`C=C(C)C(=O)OCC(O)COc1ccc(C(C)(C)c2ccc(OCC(O)COC(=O)C(=C)C)cc2)cc1` (stereo not shown) [BisGMA, Bisphenol A glycerolate dimethacrylate]: the initial viscosity in data set [4] was 1369 Pa·s.
Regarding `C=C(C)C(=O)OCCO` [HEMA, 2-Hydroxyethyl methacrylate], in data set [1] (UDMA mixtures), the water sorption is given as 102.8 μg/mm3. Besides, the “inhibition of MMP-2” value in data set [5] is recorded as “inhibition”. For the same compound, the degradation was 69.0 (2.3) % in data set [6] (pH 1, 37° C.) and 10.5 (0.7) % in data set [6] (pH 2, 37° C.). Also, the “degradation under aqueous conditions” value in data set [2] was found to be 8%. Also, in data set [3], the “degraded monomers” value came out at 52%.
As to `C=CC(=O)N(C)CCO` [HEM, N-(2-hydroxyethyl)-N-methylacrylamide], the water sorption in data set [1] (BisGMA co-polymerizations) was 38.7 μg/mm3; in data set [1] (UDMA mixtures), 203.5 μg/mm3.
With `C=CC(=O)N(C)C` [DMAM, N.N-Dimethylacrylamide], the solubility in data set [1] (BisGMA co-polymerization) is 52.3 μg/mm3; in data set [1] (UDMA co-polymerization), 44.3 μg/mm3. Moreover, the water sorption in data set [1] (UDMA mixtures) is reported as 224.7 μg/mm3.
For `C=C(C)C(=O)NCCO` [HEMAM, N-Hydroxyethyl methacrylamide], in data set [5], the “inhibition of MMP-2” value is “inhibition”. In addition, the degradation in data set [6] (pH 1, 37° C.) is given as 6.0 (0) %; in data set [6] (pH 2, 37° C.), “did not show any significant amount of degradation products”.
